Results: ChEMBL document CHEMBL4680222, “Sensitive fluorogenic substrates for sirtuin deacylase inhibitor discovery” (Eur J Med Chem, 2020)
Active and inactive are the calls of the source. The calls are words filed in the database; no cut-off is given here. *1 amine or outer side, *2 acyl side, *3 side chain or, on linkers, in order; H or OH if unused. Where a SMILES comes first, the peptide text is derived from it. The star is where a group is joined. AMC = Cc1cc(=O)oc2cc(N*)ccc12; Suc = O=C(CCC(=O)[*:2])[*:1]; Decanoyl = CCCCCCCCCC(=O)*

Tests used:
[1] = target: T1, NAD-dependent protein deacetylase sirtuin-1 (Homo sapiens) (UniProt Q96EB6); experiment: Substrate activity at human N-terminal His-tagged SIRT1 (183 to 664 residues) expressed in Escherichia coli at 50 uM measured after 2 hrs in presence of NAD+ and trypsin by fluorescence assay
T1 sequence (whole entry): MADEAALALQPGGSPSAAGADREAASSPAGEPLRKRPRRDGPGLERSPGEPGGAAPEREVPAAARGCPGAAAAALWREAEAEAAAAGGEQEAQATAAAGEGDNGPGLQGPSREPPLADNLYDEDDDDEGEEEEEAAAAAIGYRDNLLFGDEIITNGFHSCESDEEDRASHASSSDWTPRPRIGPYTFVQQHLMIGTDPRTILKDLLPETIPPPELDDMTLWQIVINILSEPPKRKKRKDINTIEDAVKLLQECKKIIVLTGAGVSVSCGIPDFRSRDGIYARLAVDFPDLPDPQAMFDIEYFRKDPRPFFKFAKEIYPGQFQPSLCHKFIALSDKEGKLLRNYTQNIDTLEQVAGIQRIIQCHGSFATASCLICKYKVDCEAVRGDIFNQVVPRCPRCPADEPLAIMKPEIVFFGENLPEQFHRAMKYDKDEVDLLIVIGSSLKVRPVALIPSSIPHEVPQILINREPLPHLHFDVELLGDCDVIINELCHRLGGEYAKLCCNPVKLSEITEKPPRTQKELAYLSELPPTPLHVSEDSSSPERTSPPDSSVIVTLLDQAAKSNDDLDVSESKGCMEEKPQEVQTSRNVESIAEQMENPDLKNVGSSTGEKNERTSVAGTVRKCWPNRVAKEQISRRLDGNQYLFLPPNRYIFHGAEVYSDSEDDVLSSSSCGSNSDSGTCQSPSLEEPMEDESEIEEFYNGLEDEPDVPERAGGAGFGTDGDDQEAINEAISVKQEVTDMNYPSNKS

[2] = target: NAD-dependent protein deacylase sirtuin-5, mitochondrial (Homo sapiens) (UniProt Q9NXA8); experiment: Substrate activity at human N-terminal His-tagged SIRT5 (34 to 302 residues) expressed in Escherichia coli at 5 uM measured after 2 hrs in presence of NAD+ and trypsin by fluorescence assay
NAD-dependent protein deacylase sirtuin-5, mitochondrial (Homo sapiens), sequence (Q9NXA8 37-310 limits assumed): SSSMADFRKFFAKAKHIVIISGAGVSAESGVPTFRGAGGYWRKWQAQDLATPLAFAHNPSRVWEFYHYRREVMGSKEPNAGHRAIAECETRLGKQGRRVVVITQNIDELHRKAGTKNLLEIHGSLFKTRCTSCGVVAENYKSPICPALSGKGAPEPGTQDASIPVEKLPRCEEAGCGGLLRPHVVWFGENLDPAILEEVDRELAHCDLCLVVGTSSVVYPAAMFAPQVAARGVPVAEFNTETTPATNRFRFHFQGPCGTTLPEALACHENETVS

[3] = target: NAD-dependent protein deacylase sirtuin-5, mitochondrial (Homo sapiens) (UniProt Q9NXA8); experiment: Substrate activity at human N-terminal His-tagged SIRT5 (34 to 302 residues) expressed in Escherichia coli at 0.5 uM measured after 2 hrs in presence of NAD+ and trypsin by fluorescence assay
[4] = target: T1, NAD-dependent protein deacetylase sirtuin-1 (Homo sapiens); experiment: Substrate activity at human N-terminal His-tagged SIRT1 (183 to 664 residues) expressed in Escherichia coli at 5 uM measured after 2 hrs in presence of NAD+ and trypsin by fluorescence assay
[5] = target: T2, NAD-dependent protein deacetylase sirtuin-7 (Homo sapiens) (UniProt Q9NRC8); experiment: Substrate activity at human N-terminal His-tagged SIRT7 (68 to 354 residues) expressed in Escherichia coli at 50 uM measured after 2 hrs in presence of NAD+ and trypsin by fluorescence assay
T2 sequence (whole entry): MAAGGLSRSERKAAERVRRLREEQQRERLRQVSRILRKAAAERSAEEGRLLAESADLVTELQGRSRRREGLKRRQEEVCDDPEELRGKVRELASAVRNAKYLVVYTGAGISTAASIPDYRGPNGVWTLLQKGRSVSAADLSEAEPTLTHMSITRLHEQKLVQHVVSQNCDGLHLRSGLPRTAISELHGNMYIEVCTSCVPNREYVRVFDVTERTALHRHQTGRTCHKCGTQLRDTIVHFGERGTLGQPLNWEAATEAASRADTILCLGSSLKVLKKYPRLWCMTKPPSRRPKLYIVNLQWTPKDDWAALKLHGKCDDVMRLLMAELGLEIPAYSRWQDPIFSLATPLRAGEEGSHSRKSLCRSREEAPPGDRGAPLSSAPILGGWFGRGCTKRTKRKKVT

[6] = target: T3, NAD-dependent protein deacetylase sirtuin-3, mitochondrial (Homo sapiens) (UniProt Q9NTG7); experiment: Substrate activity at human N-terminal His-tagged SIRT3 (122 to 391 residues) expressed in Escherichia coli at 0.5 uM measured after 2 hrs in presence of NAD+ and trypsin by fluorescence assay
T3 sequence (whole entry): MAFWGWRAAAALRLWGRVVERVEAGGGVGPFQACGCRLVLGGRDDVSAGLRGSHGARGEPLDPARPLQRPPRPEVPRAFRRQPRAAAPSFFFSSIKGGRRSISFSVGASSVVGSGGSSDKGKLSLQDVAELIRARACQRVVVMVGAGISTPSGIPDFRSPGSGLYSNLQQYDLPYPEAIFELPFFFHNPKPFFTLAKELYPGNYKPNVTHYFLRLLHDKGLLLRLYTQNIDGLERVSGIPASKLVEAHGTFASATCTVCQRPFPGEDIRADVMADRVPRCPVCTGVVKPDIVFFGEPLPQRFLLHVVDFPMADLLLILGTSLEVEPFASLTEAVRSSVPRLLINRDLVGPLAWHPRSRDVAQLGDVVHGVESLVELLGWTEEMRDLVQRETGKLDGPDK

[7] = target: T4, NAD-dependent protein deacetylase sirtuin-2 (Homo sapiens) (UniProt Q8IXJ6); experiment: Substrate activity at human N-terminal His-tagged SIRT2 (56 to 356 residues) expressed in Escherichia coli at 50 uM measured after 2 hrs in presence of NAD+ and trypsin by fluorescence assay
T4 sequence (whole entry): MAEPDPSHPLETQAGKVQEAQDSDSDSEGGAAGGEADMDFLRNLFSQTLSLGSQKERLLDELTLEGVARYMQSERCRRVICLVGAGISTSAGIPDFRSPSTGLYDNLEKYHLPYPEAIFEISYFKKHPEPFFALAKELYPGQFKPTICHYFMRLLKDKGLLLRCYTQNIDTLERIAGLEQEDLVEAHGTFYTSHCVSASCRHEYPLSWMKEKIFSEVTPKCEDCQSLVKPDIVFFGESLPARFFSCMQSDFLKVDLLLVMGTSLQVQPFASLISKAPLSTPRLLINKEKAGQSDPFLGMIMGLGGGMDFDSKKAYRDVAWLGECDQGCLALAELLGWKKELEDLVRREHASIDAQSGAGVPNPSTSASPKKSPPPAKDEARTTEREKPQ

[8] = target: NAD-dependent protein deacylase sirtuin-6 (Homo sapiens) (UniProt Q8N6T7); experiment: Substrate activity at human N-terminal His-tagged SIRT6 (1 to 355 residues) expressed in Escherichia coli at 0.5 uM measured after 2 hrs in presence of NAD+ and trypsin by fluorescence assay
NAD-dependent protein deacylase sirtuin-6 (Homo sapiens), sequence (Q8N6T7 whole entry, the tested form may be a part): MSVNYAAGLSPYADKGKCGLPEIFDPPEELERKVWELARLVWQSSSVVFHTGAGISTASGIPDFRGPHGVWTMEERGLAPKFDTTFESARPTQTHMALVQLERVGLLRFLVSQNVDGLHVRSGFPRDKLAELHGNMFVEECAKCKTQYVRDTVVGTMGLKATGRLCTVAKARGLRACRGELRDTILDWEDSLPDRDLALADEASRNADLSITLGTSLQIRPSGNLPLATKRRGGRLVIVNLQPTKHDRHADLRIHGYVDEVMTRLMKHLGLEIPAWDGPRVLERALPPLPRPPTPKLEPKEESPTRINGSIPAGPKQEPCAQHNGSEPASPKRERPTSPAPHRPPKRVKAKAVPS

[9] = target: NAD-dependent protein deacylase sirtuin-5, mitochondrial (Homo sapiens) (UniProt Q9NXA8); experiment: Substrate activity at human N-terminal His-tagged SIRT5 (34 to 302 residues) expressed in Escherichia coli at 50 uM measured after 2 hrs in presence of NAD+ and trypsin by fluorescence assay
[10] = target: T4, NAD-dependent protein deacetylase sirtuin-2 (Homo sapiens); experiment: Substrate activity at human N-terminal His-tagged SIRT2 (56 to 356 residues) expressed in Escherichia coli at 5 uM measured after 1 hr in presence of NAD+ and trypsin by fluorescence assay
[11] = target: T1, NAD-dependent protein deacetylase sirtuin-1 (Homo sapiens); experiment: Substrate activity at human N-terminal His-tagged SIRT1 (183 to 664 residues) expressed in Escherichia coli at 0.5 uM measured after 2 hrs in presence of NAD+ and trypsin by fluorescence assay
[12] = target: T3, NAD-dependent protein deacetylase sirtuin-3, mitochondrial (Homo sapiens); experiment: Substrate activity at human N-terminal His-tagged SIRT3 (122 to 391 residues) expressed in Escherichia coli at 5 uM measured after 2 hrs in presence of NAD+ and trypsin by fluorescence assay
[13] = target: NAD-dependent protein deacylase sirtuin-6 (Homo sapiens) (UniProt Q8N6T7); experiment: Substrate activity at human N-terminal His-tagged SIRT6 (1 to 355 residues) expressed in Escherichia coli at 5 uM measured after 2 hrs in presence of NAD+ and trypsin by fluorescence assay
[14] = target: T3, NAD-dependent protein deacetylase sirtuin-3, mitochondrial (Homo sapiens); experiment: Substrate activity at human N-terminal His-tagged SIRT3 (122 to 391 residues) expressed in Escherichia coli at 50 uM measured after 2 hrs in presence of NAD+ and trypsin by fluorescence assay
[15] = target: T2, NAD-dependent protein deacetylase sirtuin-7 (Homo sapiens); experiment: Substrate activity at human N-terminal His-tagged SIRT7 (68 to 354 residues) expressed in Escherichia coli at 0.5 uM measured after 2 hrs in presence of NAD+ and trypsin by fluorescence assay
[16] = target: T4, NAD-dependent protein deacetylase sirtuin-2 (Homo sapiens); experiment: Substrate activity at human N-terminal His-tagged SIRT2 (56 to 356 residues) expressed in Escherichia coli at 5 uM measured after 2 hrs in presence of NAD+ and trypsin by fluorescence assay
[17] = target: NAD-dependent protein deacylase sirtuin-6 (Homo sapiens) (UniProt Q8N6T7); experiment: Substrate activity at human N-terminal His-tagged SIRT6 (1 to 355 residues) expressed in Escherichia coli at 50 uM measured after 2 hrs in presence of NAD+ and trypsin by fluorescence assay
[18] = target: T2, NAD-dependent protein deacetylase sirtuin-7 (Homo sapiens); experiment: Substrate activity at human N-terminal His-tagged SIRT7 (68 to 354 residues) expressed in Escherichia coli at 5 uM measured after 2 hrs in presence of NAD+ and trypsin by fluorescence assay
[19] = target: T4, NAD-dependent protein deacetylase sirtuin-2 (Homo sapiens); experiment: Substrate activity at human N-terminal His-tagged SIRT2 (56 to 356 residues) expressed in Escherichia coli at 0.5 uM measured after 2 hrs in presence of NAD+ and trypsin by fluorescence assay
[20] = target: NAD-dependent protein deacylase sirtuin-5, mitochondrial (Homo sapiens) (UniProt Q9NXA8); experiment: Substrate activity at human N-terminal His-tagged SIRT5 (34 to 302 residues) expressed in Escherichia coli at 5 uM measured after 1 hr in presence of NAD+ and trypsin by fluorescence assay

Activity [1] [RFU]	Activity [2] [RFU]	Activity [3] [RFU]	Activity [4] [RFU]	Activity [5] [RFU]	Activity [6] [RFU]	Activity [7] [RFU]	Activity [8] [RFU]	Activity [9] [RFU]	Activity [10]	Activity [11] [RFU]	Activity [12] [RFU]	Activity [13] [RFU]	Activity [14] [RFU]	Activity [15] [RFU]	Activity [16] [RFU]	Activity [17] [RFU]	Activity [18] [RFU]	Activity [19] [RFU]	Activity [20]	Structure (SMILES)
4.13	0.42	0.3	1.37	0.73	0.51	79.9	0.39	1.24	Active	2.97	0.66	0.33	1.86	0.28	20.6	0.73	0.38	2.97		CCCCCCCCCC(=O)NCCCC[C@H](NC(=O)[C@H](CC(=O)O)NC(=O)[C@@H](NC(=O)[C@H](CCC(=O)O)NC(C)=O)[C@@H](C)O)C(=O)Nc1ccc2c(C)cc(=O)oc2c1 (Ac-ETDK(Decanoyl)-{AMC})
0.98	25.1	3.07	0.35	1.14	0.5	0.9	0.41	1.41		0.2	0.56	0.37	1.42	0.28	0.21	1.14	0.32	0.2	Active	CC(=O)N[C@@H](CC(C)C)C(=O)NCC(=O)N[C@@H](CO)C(=O)N[C@@H](CCCCNC(=O)CCC(=O)O)C(=O)Nc1ccc2c(C)cc(=O)oc2c1 (Ac-LGSK(Suc)-{AMC})
1.05	21.5	3.36	0.44	1.18	0.48	1.03	0.38	1.5		0.24	0.53	0.37	1.32	0.3	0.25	1.18	0.41	0.24	Active	CC(=O)N[C@@H](CO)C(=O)N[C@@H](CC(C)C)C(=O)NCC(=O)N[C@@H](CCCCNC(=O)CCC(=O)O)C(=O)Nc1ccc2c(C)cc(=O)oc2c1 (Ac-SLGK(Suc)-{AMC})
1.34	0.39	0.31	2.13	0.73	0.67	13.5	0.4	1.08	Active	1.38	1.04	0.3	1.64	0.29	7.07	0.73	1.03	1.38		CCCCCCCCCC(=O)NCCCC[C@H](NC(=O)[C@@H](NC(=O)[C@H](CO)NC(=O)[C@H](CO)NC(C)=O)[C@@H](C)CC)C(=O)Nc1ccc2c(C)cc(=O)oc2c1 (Ac-SSIK(Decanoyl)-{AMC})
